This is an account of results in ChEMBL document CHEMBL1153283, “Synthesis and application of MeOSuc-Ala-Ala-Pro-Phe-CH2Cl as potent proteinase K inhibitor” (Bioorg Med Chem Lett, 2009).

A short description of assay [1]: Inhibition of proteinase K at 0.125 mM by independent digestion assay in presence of BSA.
A short description of assay [2]: Inhibition of proteinase K at […] by RT-PCR.
Assay [3] can be described thus: Inhibition of proteinase K at 1 mM by RT-PCR.
A short description of assay [4]: Inhibition of proteinase K at 0.25 mM by independent digestion assay in presence of BSA.
Assay [5] can be described thus: Inhibition of proteinase K at 0.05 mM by RT-PCR.

Activity calls are given as the source filed them. The rule behind the calls is not given here.

As to `COC(=O)CCC(=O)N[C@H](C)C(=O)N[C@@H](C)C(=O)N1CCC[C@H]1C(=O)N[C@H](C(=O)CCl)C(C)C`, the outcome in assay [1], in assay [2] and in assay [3] was Active.
Regarding `COC(=O)CCC(=O)N[C@H](C)C(=O)N[C@@H](C)C(=O)N1CCC[C@H]1C(=O)N[C@@H](Cc1ccccc1)C(=O)CCl`, the result in assay [4] and in assay [5] was Active.
